Data: patent publication US9682976B2, “Protein kinase C inhibitors and uses thereof” (Rigel Pharmaceuticals, Inc., priority 2012, dated 2017)
Counter-ions that a name gives are not always drawn.

What follows are compounds tested on PKC mediated IL-2 production (assay: IL-2 ELISA, human primary T cell, anti CD3+CD28+). Conditions: Homo sapiens, T-cell, 24 h, human primary T cells stimulated with αCD3 and αCD28, 24 hours.
Format: cell-based
Experimental: Compounds 1-328 were tested in a whole cell functional assay for PKC mediated IL-2 production as follows. Human primary T cell isolation and culture: Human primary T cells were prepared as follows. Whole blood was obtained from a healthy volunteer, mixed 1:1 with PBS, layered on to Ficoll Hypaque (Amersham Pharmacia Biotech, Piscataway, N.J., Catalog #17-1440-03) in 2:1 blood/PBS:ficoll ratio and centrifuged for 30 minutes at 4° C. at 1750 rpm. The cells at the serum: ficoll interface were recovered and washed twice with 5 volumes of PBS. These freshly isolated human peripheral blood mononuclear cells were cultured in Yssel's medium containing 40 U/ml IL2 in a flask pre-coated with […] αCD3 and 5 μg/ml αCD28 (Anti-Human CD3, BD Pharmingen Catalog #555336, Anti-Human CD28, Beckman Coulter Catalog #IM1376). The cells were stimulated for 3-4 days, then transferred to a fresh flask and maintained in RPMI (RPMI-1640 with L-Glutamine; Mediatech, Inc., Herndon Va., cat. #10-040-CM) with 10% FBS and 40 U/ml IL-2. The primary T-cells were then washed twice with PBS to remove the IL-2.
Primary T cell stimulation and IL2 ELISA: Human primary T cells (100,000 cells per well) were pre-incubated with or without test compound in Yssel's medium for 1 hour at 37° C. Cells were then stimulated by transferring them to round-bottom 96-well plates pre-coated with […] αCD3 and 5 μg/ml αCD28. For counter assay, cells were instead stimulated by adding 8× stock solutions of PMA and ionomycin in Yssels (for final concentrations of 0.5 ng/ml PMA and 0.1 uM ionomycin, both from Calbiochem). Cells were incubated at 37° C. for 24 hours before 100 μL supernatants were harvested for quantification of IL-2 by ELISA using Human IL-2 Duoset ELISA Kit from R and D Systems, Cat. # DY202E.

EC50 [nM] | SMILES
500 to 1000 | Cn1nnn(-c2cc(Nc3ncc(F)c(N[C@H]4C[C@H]5CCCN5C(C)(C)C4)n3)c(F)cc2C2CC2)c1=O [Compound 18, 1-(5-(4-((7S,8aR)-Octahydro-5,5-dimethylindolizin-7ylamino)-5-fluoropyrimidin-2-ylamino)-2-cyclopropyl-4-fluorophenyl)-4-methyl-1H-tetrazol-5(4H)-one]
100 to 500 | COc1cc(F)c(Nc2ncc(F)c(N[C@@H]3C[C@@H]4CCCN4C(C)(C)C3)n2)cc1-n1nnn(C)c1=O [Compound 22, 1-(5-(4-((7R,8aS)-5,5-dimethyl-octahydroindolizin-7-ylamino)-5-fluoropyrimidin-2-ylamino)-4-fluoro-2-methoxyphenyl)-4-methyl-1H-tetrazol-5(4H)-one]
< 100 | Cn1nnn(-c2cc(Nc3ncc(F)c(NC4CC5CCCN5C(C)(C)C4)n3)ccc2OC2COC2)c1=O (stereo not shown) [Compound 40, 1-(5-(5-fluoro-4-(octahydro-5,5-dimethylindolizin-7-ylamino)pyrimidin-2-ylamino)-2-(oxetan-3-yloxy)phenyl)-4-methyl-1H-tetrazol-5(4H)-one]
100 to 500 | CC1(C)CC(Nc2nc(Nc3ccc(OC4CCOCC4)c(C#N)c3)ncc2F)CC2CCCN21 (stereo not shown) [Compound 41, 5-(5-fluoro-4-(octahydro-5,5-dimethylindolizin-7-ylamino)pyrimidin-2-ylamino)-2-(tetrahydro-2H-pyran-4-yloxy)benzonitrile]
1000 to 10000 | Cn1nnn(-c2cc(Nc3ncc(F)c(N[C@H]4C[C@@H]5CC(F)(F)CN5C(C)(C)C4)n3)c(F)cc2C2CC2)c1=O [Compound 42, 1-(5-(4-((7S,8aR)-2,2-difluoro-octahydro-5,5-dimethylindolizin-7-ylamino)-5-fluoropyrimidin-2-ylamino)-2-cyclopropyl-4-fluorophenyl)-4-methyl-1H-tetrazol-5(4H)-one]
1000 to 10000 | CC1(C)C[C@@H](Nc2nc(Nc3cc(-n4cnnn4)c(C4CC4)cc3F)ncc2F)C[C@@H]2CC(F)(F)CN21 [Compound 43, N^2-(4-cyclopropyl-2-fluoro-5-(1H-tetrazol-1-yl)phenyl)-5-fluoro-N^4-((7S,8aR)-2,2-difluoro-octahydro-5,5-dimethylindolizin-7-yl)pyrimidine-2,4-diamine]
1000 to 10000 | Cc1ccc(Nc2ncc(F)c(N[C@H]3C[C@@H]4CC(F)(F)CN4C(C)(C)C3)n2)cc1C#N [Compound 44, 5-(4-((7S,8aR)-2,2-difluoro-octahydro-5,5-dimethylindolizin-7-ylamino)-5-fluoropyrimidin-2-ylamino)-2-methylbenzonitrile]
1000 to 10000 | Cn1nnn(-c2cc(Nc3ncc(F)c(N[C@@H]4C[C@@H]5CC(F)(F)CN5C(C)(C)C4)n3)c(F)cc2C2CC2)c1=O [Compound 45, 1-(5-(4-((7R,8aR)-2,2-difluoro-octahydro-5,5-dimethylindolizin-7-ylamino)-5-fluoropyrimidin-2-ylamino)-2-cyclopropyl-4-fluorophenyl)-4-methyl-1H-tetrazol-5(4H)-one]
500 to 1000 | CC1(C)C[C@H](Nc2nc(Nc3cc(-n4cnnn4)c(C4CC4)cc3F)ncc2F)C[C@@H]2CC(F)(F)CN21 [Compound 46, N^2-(4-cyclopropyl-2-fluoro-5-(1H-tetrazol-1-yl)phenyl)-5-fluoro-N^4-((7R,8aR)-2,2-difluoro-octahydro-5,5-dimethylindolizin-7-yl)pyrimidine-2,4-diamine]
100 to 500 | Cn1nnn(-c2cc(Nc3ncc(F)c(NC4CC5CCCN5C(C)(C)C4)n3)ccc2OC2CCOCC2)c1=O (stereo not shown) [Compound 51, 1-(5-(5-fluoro-4-(octahydro-5,5-dimethylindolizin-7-ylamino)pyrimidin-2-ylamino)-2-(tetrahydro-2H-pyran-4-yloxy)phenyl)-4-methyl-1H-tetrazol-5(4H)-one]
100 to 500 | CC1(C)CC(Nc2nc(Nc3ccc(OC4COC4)c(C#N)c3)ncc2F)CC2CCCN21 (stereo not shown) [Compound 63, 5-(5-Fluoro-4-(octahydro-5,5-dimethylindolizin-7-ylamino)pyrimidin-2-ylamino)-2-(oxetan-3-yloxy)benzonitrile]
100 to 500 | Cn1nnn(-c2cc(Nc3ncc(F)c(N[C@@H]4C[C@@H]5C[C@@H](F)CN5C(C)(C)C4)n3)c(F)cc2C2CC2)c1=O [Compound 64, 1-(5-(4-((2R,7R,8aR)-2-fluoro-octahydro-5,5-dimethylindolizin-7-ylamino)-5-fluoropyrimidin-2-ylamino)-2-cyclopropyl-4-fluorophenyl)-4-methyl-1H-tetrazol-5(4H)-one]
1000 to 10000 | Cn1nnn(-c2cc(Nc3ncc(F)c(N[C@H]4C[C@@H]5C[C@@H](F)CN5C(C)(C)C4)n3)c(F)cc2C2CC2)c1=O [Compound 65, 1-(5-(4-((2R,7S,8aR)-2-fluoro-octahydro-5,5-dimethylindolizin-7-ylamino)-5-fluoropyrimidin-2-ylamino)-2-cyclopropyl-4-fluorophenyl)-4-methyl-1H-tetrazol-5(4H)-one]
100 to 500 | Cn1nnn(-c2cc(Nc3ncc(F)c(N[C@@H]4C[C@@H]5C[C@H](F)CN5C(C)(C)C4)n3)c(F)cc2C2CC2)c1=O [Compound 67, 1-(5-(4-((2S,7R,8aR)-2-fluoro-octahydro-5,5-dimethylindolizin-7-ylamino)-5-fluoropyrimidin-2-ylamino)-2-cyclopropyl-4-fluorophenyl)-4-methyl-1H-tetrazol-5(4H)-one]
100 to 500 | Cn1nnn(-c2cc(Nc3ncc(F)c(N[C@@H]4C[C@@H]5C[C@@H](O)CN5C(C)(C)C4)n3)c(F)cc2C2CC2)c1=O [Compound 68, 1-(5-(4-((2R,7R,8aR)-2-hydroxy-octahydro-5,5-dimethylindolizin-7-ylamino)-5-fluoropyrimidin-2-ylamino)-2-cyclopropyl-4-fluorophenyl)-4-methyl-1H-tetrazol-5(4H)-one]
500 to 1000 | CC1C(Nc2nc(Nc3cc(-n4nnn(C)c4=O)c(C4CC4)cc3F)ncc2F)CC(C)(C)N2CCCC12 (stereo not shown) [Compound 69, 1-(5-(5-Fluoro-4-(octahydro-5,5,8-trimethylindolizin-7-ylamino)pyrimidin-2-ylamino)-2-cyclopropyl-4-fluorophenyl)-4-methyl-1H-tetrazol-5(4H)-one]
1000 to 10000 | Cc1nnnn1-c1cc(Nc2ncc(F)c(NC3CC(C)(C)N4CCCC4C3C)n2)ccc1F (stereo not shown) [Compound 70, 5-Fluoro-N2-(4-fluoro-3-(5-methyl-1H-tetrazol-1-yl)phenyl)-N4-(octahydro-5,5,8-trimethylindolizin-7-yl)pyrimidine-2,4-diamine]
500 to 1000 | CC1(C)C[C@H](Nc2nc(Nc3cc(S(F)(F)(F)(F)F)ccc3F)ncc2F)C[C@@H]2CCCN21 [Compound 71]
500 to 1000 | CC1(C)C[C@H](Nc2nc(Nc3cc(F)cc(S(F)(F)(F)(F)F)c3)ncc2F)C[C@@H]2CCCN21 [Compound 72]

Same assay, conditions: human primary T cells stimulated with αCD3 and αCD28, 24 hours

EC50 [nM] | SMILES
100 to 500 | Cc1ncc(Nc2ncc(F)c(NC3CC4CCCN4C(C)(C)C3)n2)cc1-n1nnnc1C (stereo not shown) [Compound 15]
1000 to 10000 | Cn1nnn(-c2cc(Nc3ncc(F)c(NC4CCN5CCCC5C4)n3)c(F)cc2C2CC2)c1=O (stereo not shown) [Compound 29]
1000 to 10000 | Cn1nnn(-c2cc(Nc3ncc(F)c(N[C@H]4C[C@@H]5CCC(=O)N5C(C)(C)C4)n3)c(F)cc2C2CC2)c1=O [Compound 33, 1-(5-(5-fluoro-4-(hexahydro-5,5-dimethylindolizin-3(5H)-one-7-ylamino)pyrimidin-2-ylamino)-2-cyclopropyl-4-fluorophenyl)-4-methyl-1H-tetrazol-5(4H)-one formate]
